Consider one compound from patent publication US11801231B2, “Oral compositions and methods of use” (3M INNOVATIVE PROPERTIES COMPANY, priority 2017, dated 2023).

This assay has as its system Streptococcus mutans biofilm. Briefly: Biofilm disruption test (modified MBEC assay). It is filed as cell-based, Streptococcus mutans (ATCC 25175). An excerpt: In some embodiments, disclosed compositions can prevent, inhibit, disrupt, disperse, reduce the formation or maintenance of a biofilm in an area contacted with the composition. In some embodiments, a composition can prevent, inhibit, disrupt, disperse, reduce the formation or maintenance of a biofilm in a mouth of a user where the composition was applied to the mouth when compared to a mouth without the composition applied thereto. […] Preventing, inhibiting, disrupting, dispersing, reducing, controlling, or some combination thereof the formation or maintenance of biofilms can be measured using a modified version of the MBEC assay (described in ASTM E2799), which measures disruption of Streptococcus mutans biofilms grown on special pegs in a microtiter plate. […] The biofilm remaining on each peg following treatment is quantified by measuring the amount of fluorescently labeled bacteria that eluted from the pegs at the end of the treatment cycles (see example). […] Decreasing plaque buildup can be measured by a variety of methods in vivo including for example plaque scoring, dyeing of plaque, etc.
This method utilizes the high throughput MBEC assay system (Innovotech, Calgary, AB Canada). The method evaluates efficacy of a treatment in disrupting biofilm by quantifying the amount of fluorescent-labeled biofilm remaining on MBEC inoculator pegs after exposure to relevant treatment conditions. […]

On to `N=C(NCCCCCCNC(=N)NC(=N)Nc1ccc(Cl)cc1)NC(=N)Nc1ccc(Cl)cc1.O=C(O)[C@H](O)[C@@H](O)[C@H](O)[C@H](O)CO.O=C(O)[C@H](O)[C@@H](O)[C@H](O)[C@H](O)CO` [0.1% CHG, chlorhexidine gluconate], for which the “Normalized Relative Fluorescence (%)” value (normalized to PBS negative control in the same plate, low value = more biofilm disruption) is 3.8%. Further, the “Fluorescence intensity of Alexafluor 488-labeled S. mutans biofilm matrix” value (two 1-minute treatment cycles, biofilm eluted from MBEC pegs, ex 488 nm, em 525 nm) came out at 1281 a.u.
